In general, IC50 refers to the concentration needed to halve the response being measured.

Structures are written as SMILES. A value given as a limit tells only on which side of the number the result lay.

For one series, the target named is CYP1A2 (Homo sapiens, UniProt P05177). Kind of series: Metabolism by recombinant human CYP1A2. Format: in vitro ADME. Particulars: read-out: terminal half life (T1/2), rh CYP1A2. As for the experimental part:
(§1) Drug metabolizing enzymes involved in the biotransformation of Compound I were investigated using human liver microsomes (HLM) and recombinant enzymes. Compound I was stable in HLMs (>93% remaining after 240 minutes of incubation with HLM protein concentration at 0.6 mg/ml). CYP selective inhibitor experiments were not performed due to lack of appreciable Compound I turnover.

Another series concerns the target CYP3A4 (Homo sapiens, UniProt P08684). In words: CYP3A4 (Table 5). Format: in vitro ADME. Particulars: test not described.
Series [1] deals with CT26_STK11KO tumor (KRAS G12D). Kind of series: Anti-tumor efficacy in CT26_STK11KO colon carcinoma model. Format: in vivo, mouse. As to conditions: for ORR % / TGI %: CT26 STK11KO. As for the experimental part: In this example, the anti-tumor activity of a combination treatment of anti-PD1 antibody with Compound I was determined in vivo in STK11-deleted syngeneic mouse models.
Briefly, mice were inoculated with STK11-deleted CT26 (murine colorectal carcinoma cell line) tumor model in a manner similar to that described in Example 1. The tumor model was resistant to murine anti-PD1 antibody by knockout of the STK11. Mice were treated with Compound I orally once daily and with anti-PD1, anti-IgG2a control, or anti-PD1 control twice per week as indicated. Tumor volume and survival was monitored over the course of treatment and plotted by individual animal for tumor volume (FIG. 7A) and by group for survival (FIG. 7B).
(§2) An in vivo anti-tumor efficacy of combination treatment of Anti-PD1 and Compound I in a CT26 mouse model was evaluated. CT26 is a colon carcinoma cell line with an endogenous KRAS G12D mutation. The experiment was performed in the parental/wild type line and in a line engineered with an STK11 knock-out (CT26_STK11KO) resulting in an anti-PD1 resistant model with lower CD8+ T cell infiltration.
(§3) In each of the experiments, the animals (8/group) were divided into four groups. Group I was treated with a control antibody Anti-IgG2, group 2 was treated with Compound I 75 mg/kg, group 3 was treated with anti-PD1 antibody, and group 4 was treated with Compound I 75 mg/kg and anti-PD1 antibody. Tumor volume and survival was monitored over the course of treatment. For the CT26_STK11KO model, the tumor volume was plotted by individual animal (FIG. 15A) and by treatment group (FIG. 15B). Survival was plotted by treatment group (FIG. 15C).
(§4) An in vivo anti-tumor efficacy of combination treatment of anti-CTLA4 and Compound I in a CT26 mouse model was evaluated. CT26 is a colon carcinoma cell line with an endogenous KRAS G12D mutation. The experiment was performed in the parental/wild type line and in a line engineered with an STK11 knock-out (CT26_STK11KO) resulting in an anti-CTLA4-resistant model.
(§5) An in vivo anti-tumor efficacy of double combination treatment of Anti-CTLA4 and Compound I in a CT26 syngeneic model was performed. CT26 is a colon carcinoma cell line. The experiment was also performed with an STK11-null CT26 model, this model is CTLA4 resistant.
(§6) There were 8 mice per group. Group I was treated with a control antibody Anti-IgG2, group 2 was treated with Compound I 75 mg/kg, group 3 was treated with anti-CTLA4 antibody, and group 4 was treated with Compound I 75 mg/kg and anti-CTLA4 antibody. Tumor volume was monitored over the course of treatment. The tumor volume was plotted by treatment group (FIG. 16A), and the individual animals were plotted for group 1 and group 4 (FIG. 16B), for the parental model. The tumor volume was plotted by treatment group (FIG. 16C), and the individual animals were plotted for group 1 and group 4 (FIG. 16D), for the STK11 knockout model.

The subject of series [2] is CT26 parental tumor (KRAS G12D). Kind of series: Anti-tumor efficacy in CT26 parental (wild-type) colon carcinoma model. The class given is in vivo, mouse. As for the experimental part: as §2, §3
For the CT26 parental model, the tumor volume was plotted by treatment group (FIG. 15D) and by individual animal for groups 1 and 4 (FIG. 15E).
as §4, §5, §6

A further series concerns the target T1, HDAC10 (Homo sapiens, UniProt Q969S8).
T1 construct: expressed in transfected cells
In words: Cellular NanoBRET assay, HDAC10. Format: cell-based. In general terms: BRET reads energy transfer from a luciferase to a nearby fluorophore.

A short description of series [3]: PK/PD study, plasma concentrations in MC38 tumor-bearing mice. As to conditions: for free unbound exposure in plasma: based on 10.05% free fraction. The class given is in vivo, C57BL/6 mice. The procedure:
In a separate PK/PD study, MC38 tumor-bearing female C57BL/6 mice (12/group) were assigned to treatment groups with similar mean tumor volumes of approximately 430 mm^3 and treated with vehicle (5% N,N-dimethylacetamide [DMA]+30% polyethylene glycol [PEG] 400+65% of 30% 2-hydroxypropyl-beta-cyclodextrin [HP-β-CD] in water) or Compound I at 30, 100, and 300 mg/kg once daily (QD) for 2 days. […] Peripheral blood mononuclear cells (PBMC) and tumor samples were harvested at 2, 8, and 24 hours after last dose. The PBMC samples were processed for determination of mean florescent level of acetyl-histone H2B by flow cytometry. Tumor samples were processed for determination of protein levels of acetyl-histone H3 by Western blot.

A further series relates to A549 cells. Kind of series: Nanostring PanCancer IO360 profiling of A549 cells. The class given is cell-based. Particulars: 96 hours; dose that increased H3K9Ac two-fold; vs vorinostat and domatinostat. As for the experimental part:
In this example, the gene expression changes between CoreDAC and other HDAC inhibitors was determined by Nanostring profiling.
Cells were harvested and Nanostring profiling using the PanCancer IO360 panel was performed on the three treatment groups (FIGS. 11A-C). The top three ranked gene ontology groups for each compound as determined from the Nanostring data in (FIGS. 11A-C top panel) were determined using the nSolver software (FIGS. 11A-C bottom panel).

The next series concerns the target CYP2C9 (Homo sapiens, UniProt P11712). In words: Metabolism by recombinant human CYP2C9. The class given is in vitro ADME. As to conditions: read-out: terminal half life (T1/2), rh CYP2C9. As for the experimental part:
as §1

[4] abbreviates: Compound I 75 mg/kg QD alone, second of two values (two experiments, Examples 14 and 15).
The mark [5] stands for this setting: Compound I 75 mg/kg QD, antibodies 10 mg/kg, for Compound I alone the first of two printed values.
Where [6] appears, read: 30, 100, 300 mg/kg QD for 2 days.

T1 sequence (Q969S8 whole entry): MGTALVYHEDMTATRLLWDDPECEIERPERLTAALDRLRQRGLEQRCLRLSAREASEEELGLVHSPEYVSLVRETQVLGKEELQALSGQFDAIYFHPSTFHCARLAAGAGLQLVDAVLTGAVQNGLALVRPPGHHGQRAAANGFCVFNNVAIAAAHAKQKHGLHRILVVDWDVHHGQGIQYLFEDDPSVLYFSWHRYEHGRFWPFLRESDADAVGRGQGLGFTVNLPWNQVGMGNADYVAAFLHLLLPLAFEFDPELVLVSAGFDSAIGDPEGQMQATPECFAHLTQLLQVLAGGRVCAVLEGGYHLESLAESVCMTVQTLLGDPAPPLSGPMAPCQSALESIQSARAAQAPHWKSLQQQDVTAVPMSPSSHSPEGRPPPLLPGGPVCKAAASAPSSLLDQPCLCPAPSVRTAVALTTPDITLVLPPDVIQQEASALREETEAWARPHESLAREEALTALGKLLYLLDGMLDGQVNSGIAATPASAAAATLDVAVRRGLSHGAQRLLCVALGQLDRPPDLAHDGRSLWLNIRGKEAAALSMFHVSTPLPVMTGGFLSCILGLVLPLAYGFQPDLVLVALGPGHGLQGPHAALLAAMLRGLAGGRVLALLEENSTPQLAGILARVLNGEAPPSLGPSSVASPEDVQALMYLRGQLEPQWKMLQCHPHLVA
Sequence of CYP3A4 (P08684 whole entry): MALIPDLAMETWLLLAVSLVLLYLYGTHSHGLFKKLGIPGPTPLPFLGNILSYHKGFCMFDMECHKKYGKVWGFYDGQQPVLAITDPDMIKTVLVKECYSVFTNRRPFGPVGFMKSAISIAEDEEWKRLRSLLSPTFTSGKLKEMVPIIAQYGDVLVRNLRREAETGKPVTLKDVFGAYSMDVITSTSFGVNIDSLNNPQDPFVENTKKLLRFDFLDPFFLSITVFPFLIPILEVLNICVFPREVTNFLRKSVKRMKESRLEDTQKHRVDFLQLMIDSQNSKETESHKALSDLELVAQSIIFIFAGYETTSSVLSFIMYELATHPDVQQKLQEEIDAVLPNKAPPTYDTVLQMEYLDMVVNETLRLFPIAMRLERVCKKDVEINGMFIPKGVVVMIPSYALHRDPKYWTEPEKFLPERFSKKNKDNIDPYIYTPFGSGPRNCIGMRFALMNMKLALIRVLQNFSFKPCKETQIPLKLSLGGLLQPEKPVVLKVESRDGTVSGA
Sequence of CYP2C9 (P11712 whole entry): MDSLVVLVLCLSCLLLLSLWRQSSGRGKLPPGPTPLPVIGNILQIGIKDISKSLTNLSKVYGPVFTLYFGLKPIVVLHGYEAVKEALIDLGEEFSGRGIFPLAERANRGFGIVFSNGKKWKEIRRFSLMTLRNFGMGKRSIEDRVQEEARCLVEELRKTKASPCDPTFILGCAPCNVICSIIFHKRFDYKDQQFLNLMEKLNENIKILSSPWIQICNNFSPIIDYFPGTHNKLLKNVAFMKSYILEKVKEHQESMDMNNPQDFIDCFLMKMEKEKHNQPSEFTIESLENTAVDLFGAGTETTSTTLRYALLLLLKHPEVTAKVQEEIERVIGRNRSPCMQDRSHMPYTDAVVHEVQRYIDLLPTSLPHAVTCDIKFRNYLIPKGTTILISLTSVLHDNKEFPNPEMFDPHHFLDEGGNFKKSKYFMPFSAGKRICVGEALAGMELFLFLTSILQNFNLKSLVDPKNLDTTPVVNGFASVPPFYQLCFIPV
Sequence of CYP1A2 (P05177 whole entry): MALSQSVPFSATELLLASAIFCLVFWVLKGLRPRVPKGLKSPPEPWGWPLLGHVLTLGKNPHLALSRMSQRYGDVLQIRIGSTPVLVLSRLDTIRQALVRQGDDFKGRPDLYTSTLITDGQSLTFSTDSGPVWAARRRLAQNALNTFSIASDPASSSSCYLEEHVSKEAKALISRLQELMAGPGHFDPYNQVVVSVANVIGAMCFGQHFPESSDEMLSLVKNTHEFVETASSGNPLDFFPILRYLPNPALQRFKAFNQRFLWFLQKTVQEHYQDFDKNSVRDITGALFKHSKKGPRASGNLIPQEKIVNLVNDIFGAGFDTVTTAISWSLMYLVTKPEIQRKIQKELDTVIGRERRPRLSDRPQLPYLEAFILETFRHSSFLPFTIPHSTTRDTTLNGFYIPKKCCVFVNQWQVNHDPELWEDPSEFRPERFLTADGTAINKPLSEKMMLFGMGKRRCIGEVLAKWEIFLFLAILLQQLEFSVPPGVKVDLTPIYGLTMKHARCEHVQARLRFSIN

In the case of `C[S@@](=N)(=O)c1ccc(C(=O)Nc2cc(-c3ccc(F)cc3)ccc2N)cc1` [Compound I, (R)—N-(4-amino-4′-fluoro-[1,1′-biphenyl]-3-yl)-4-(S-methylsulfonimidoyl)benzamide], the half-life at CYP1A2 and at CYP2C9 was greater than 1 h throughout. On CYP3A4, the CYP3A4 entry is on record as “No signal”. Further, the ORR % in series [1] (setting [4]) is on record as 38%; in series [1] (setting [5]), 0%; in series [2] (setting [4]), 63/63%; in series [2] (setting [5]), 63/63%. In addition, the TGI % was determined as 70% in series [1] (setting [4]), 39% in series [1] (setting [5]), 66% in series [2] (setting [4]) and 84% in series [2] (setting [5]). In addition, the “resistance to immune checkpoint blockade driven by loss of STK11” value in series [1] (tumor models for colon adenocarcinoma and colorectal carcinoma (Examples 1 and 5)) is “reverses resistance to immune checkpoint blockade”. For the same molecule, at HDAC10, the IC50 was greater than 30 µM. The entries for the “free unbound exposure in plasma” value in series [3] (30 mg/kg QD for 2 days), in series [3] (100 mg/kg QD for 2 days) and in series [3] (300 mg/kg QD for 2 days) were 5470 ng·h/mL, 17238 ng·h/mL and 69665 ng·h/mL, respectively. Further, the “plasma concentrations versus dose” value in series [3] (setting [6]) is on record as “dose proportional”. Moreover, in series [3] (setting [6]), the “time of maximal plasma concentrations after the last dose” value was 1 h. Moreover, in the series with A549 cells, the “number of genes regulated” value is given as “regulates the expression of fewer genes”.
